Reference: ChEMBL document CHEMBL4715863, “Chemistry and Biology of Natural Azoxy Compounds” (J Nat Prod, 2020)
≈ marks a conversion by molar mass, not a printed value.

Key:
Escherichia coli = test: Antibacterial activity against Escherichia coli BE1121 by paper disc-agar diffusion method; format: functional
KB = test: Cytotoxicity against human KB cells; format: functional, cell-based

Compound	MIC (Escherichia coli) [µg/mL]	IC50 (KB) [µM]
C=C(/N=[N+](\[O-])CC(C)C)C(=O)O	0.078 (≈ 0.453 µM)	
[O-]/[N+](CCCCCCCCCC/C=C\CCc1cccnc1)=N\CCCCCCCCCC/C=C\CCc1cccnc1		1.7
